In patent US20260263651A1, “WOUND DRESSING” (UNIVERSITY OF SUNDERLAND, priority 2023, published 2026):
Entries after “also recorded” stand apart in the source; their conditions may differ.

Assays:
Format in all cases: cell-based
Escherichia coli [1] = experiment: Microbiological evaluation of standardised bacterial suspensions, modified wound dressing with absorbed substrate on agar; set-up: key to Observable colour change: − indicates no colour change; +− indicates relatively discernible blue colour change; + indicates a moderately strong blue colour change; ++ indicates a strong blue colour change
Procedure: (§1) ACTIVHEAL® simply A (10×20 cm) non-adhesive foam samples were provided by Advanced Medical Solutions Ltd. The wound dressings were cut into ~5-10×5-10 mm squares, using an ethanol washed pair of scissors. A maximum of 0.20 g of the material was added into 10 mL DI water, and the pH was adjusted to ~3 by the addition of 0.1 M aq. HCl solution. The solution was stirred for 10 mins at room temperature, followed by the addition of 0.33 g EDC •HCl (1.7 mmol) and the pH was maintained at ~3 by the addition of 0.1 M aq. HCl solution. The solution was stirred at room temperature for 10 mins followed by the addition of 0.88 g compound 8 which was dissolved in DMSO or DMF. The mixture was stirred at room temperature for 48 h. The wound dressings were filtered and were washed with ethanol. To ensure the full removal of any non-coupled amide (8), the foam samples were resuspended in ethanol, stirred for 10 mins and filtered, and this process was repeated until the amide (8) was not detectable from the filtrate (this could be maintained by TLC or HPLC evaluation). The samples were dried in a vacuum oven for 3-4 h.
(§2) The aqueous solution of 3a or 3b was prepared by the following: the desired amount of the enzymatic substrate (3.0 mg for 300 mg/L, 6.0 mg for 600 mg/L, 9.0 mg for 900 mg/L, 15.0 mg for 1500 mg/L, and 30.0 mg for 3000 mg/L) was weighed out on a 4 decimal place balance within ±0.3 mg error limit into a 10 mL volumetric flask and was adjusted to 10.0 mL with DI water. The solutions were absorbed into the foam samples and dried in a vacuum oven at 40° C. overnight.
Bacterial strains were routinely cultured from working stocks in Tryptic Soy Broth (TSB) and incubated at 37° C. overnight with shaking at 150 RPM. Overnight cultures were centrifuged at 3000×g for 5 minutes, the supernatant discarded, and the pellet resuspended in 10 mL phosphate buffered saline (PBS). Bacterial inoculums were standardised by optical density at 600 nm on an Amersham Biosciences Ultrospec 10 spectrophotometer (Amersham Biosciences, Amersham, UK) to contain between 1 and 3×10^8 CFU/mL.
However, rapid evaluation of lower bacteria concentrations is essential for the desired clinical application. Three different solutions (300, 600 and 1500 mg/L) were prepared from the substrates 3a and 3b in micro filtered DI water as a solvent. The solutions were absorbed into the wound dressing samples, which were dried overnight under vacuum at 40° C.
Two Gram negative strains (Escherichia coli—EC and Pseudomonas aeruginosa—PSA) and a Gram-positive bacterium (Staphylococcus aureus—SA) were evaluated. The bacteria were incubated overnight, centrifuged at 3000×g for 5 mins, the supernatant was discarded, and the residue pellets were resuspended in 10 mL PBS. The inoculums were standardised by measuring the optical density at 600 nm to assure a 1-3×10^8 CFU/mL. The standardised solutions were further diluted to prepare 1-3×10^6 and 1-3×10^4 CFU/mL suspension. 1×10^6 CFU would be an ideal breakpoint for a positive result, as this concentration coincides well with a level of colonisation that would likely go on to produce an infection.
100 μL bacterial suspensions were smeared over agar plates. Wound dressing samples were added to the top of the agar and were rolled over a few times (to ensure a full coverage and to ease the visibility of the colour change). The plates were incubated at 37° C., and the results were recorded after 24 h, after 48 h, after 72 h. The results are shown in Table 3-5; − indicates no colour change, +− indicates relatively discernible blue colour change, + indicates a moderately strong blue colour change and ++ indicates a strong blue colour change.

Pseudomonas aeruginosa = experiment: Microbiological evaluation of overnight bacteria suspensions, modified alginate wound dressing with absorbed substrate on agar; details: PSA overnight culture, 24 h incubation at 37° C.
Procedure: as §1, §2
(§3) To model fluid exudate from a chronic wound, the wound dressing made according to ‘Modification of ActivHeal® Alginate’, above, was placed into an agar plate and the test pathogen was smeared over the surface of the agar.
(§4) The enzymatic substrates were tested in 4 different concentrations (300, 600, 900 and 3000 mg/L) using DI water as a solvent, and the solutions were absorbed into the wound dressing samples, which were dried overnight under vacuum at 40° C.
(§5) Two Gram negative strains (Escherichia coli—EC and Pseudomonas aeruginosa—PSA) and a Gram positive bacteria (Staphylococcus aureus—SA) were evaluated against the dimethyl (3a) and the diethyl (3b) substituted substrate. The overnight cultures were directly smeared from LB broth onto Columbia blood agar without measuring the OD. The wound dressings with the enzymatic substrate absorbed were placed onto the agar and were incubated overnight (see FIGS. 2-7).

Staphylococcus aureus = experiment: as above; details: SA overnight culture, 24 h incubation at 37° C.
Procedure: as §1, §2, §3, §4, §5

Escherichia coli [2] = experiment: as above; details: for Observable colour change: EC overnight culture, 24 h incubation at 37° C.
Procedure: as §1, §2, §3, §4, §5

[3] = EC 10^4, substrate 300 mg/L, 24 h at 37° C.
[4] = EC 10^4, substrate 300 mg/L, 48 h at 37° C.
[5] = EC 10^4, substrate 300 mg/L, 72 h at 37° C.
[6] = EC 10^4, substrate 900 mg/L, 24 h at 37° C.
[7] = EC 10^4, substrate 900 mg/L, 48 h at 37° C.
[8] = EC 10^4, substrate 900 mg/L, 72 h at 37° C.
[9] = EC 10^4, substrate 1500 mg/L, 24 h at 37° C.
[10] = EC 10^4, substrate 1500 mg/L, 48 h at 37° C.
[11] = EC 10^4, substrate 1500 mg/L, 72 h at 37° C.
[12] = EC 10^6, substrate 300 mg/L, 24 h at 37° C.
[13] = EC 10^6, substrate 300 mg/L, 48 h at 37° C.
[14] = EC 10^6, substrate 300 mg/L, 72 h at 37° C.
[15] = EC 10^6, substrate 900 mg/L, 24 h at 37° C.
[16] = EC 10^6, substrate 900 mg/L, 48 h at 37° C.
[17] = EC 10^6, substrate 900 mg/L, 72 h at 37° C.
[18] = EC 10^6, substrate 1500 mg/L, 24 h at 37° C.
[19] = EC 10^6, substrate 1500 mg/L, 48 h at 37° C.
[20] = EC 10^6, substrate 1500 mg/L, 72 h at 37° C.
[21] = EC 10^8, 10^6 or 10^4 CFU, after 72 h, every tested substrate concentration
[22] = EC 10^8, substrate 300 mg/L, 24 h at 37° C.
[23] = EC 10^8, substrate 300 mg/L, 48 h at 37° C.
[24] = EC 10^8, substrate 300 mg/L, 72 h at 37° C.
[25] = EC 10^8, substrate 900 mg/L, 24 h at 37° C.
[26] = EC 10^8, substrate 900 mg/L, 48 h at 37° C.
[27] = EC 10^8, substrate 900 mg/L, 72 h at 37° C.
[28] = EC 10^8, substrate 1500 mg/L, 24 h at 37° C.
[29] = EC 10^8, substrate 1500 mg/L, 48 h at 37° C.
[30] = EC 10^8, substrate 1500 mg/L, 72 h at 37° C.
[31] = substrate 300 mg/L, hydrochloride

CCN(CC)c1ccc(NC(=O)[C@@H](N)CC(C)C)cc1.Cl [3b, (2S)-2-amino-N-[4-(diethylamino)phenyl]-4-methyl-pentanamide hydrochloride]
Observable colour change (Escherichia coli [1]; [3]): − | Observable colour change (Escherichia coli [1]; [4]): + | Observable colour change (Escherichia coli [1]; [5]): + | Observable colour change (Escherichia coli [1]; [6]): − | Observable colour change (Escherichia coli [1]; [7]): + | Observable colour change (Escherichia coli [1]; [8]): ++ | Observable colour change (Escherichia coli [1]; [9]): − | Observable colour change (Escherichia coli [1]; [10]): + | Observable colour change (Escherichia coli [1]; [11]): ++ | Observable colour change (Escherichia coli [1]; [12]): − | Observable colour change (Escherichia coli [1]; [13]): + | Observable colour change (Escherichia coli [1]; [14]): + | Observable colour change (Escherichia coli [1]; [15]): − | Observable colour change (Escherichia coli [1]; [16]): + | Observable colour change (Escherichia coli [1]; [17]): ++ | Observable colour change (Escherichia coli [1]; [18]): +− | Observable colour change (Escherichia coli [1]; [19]): + | Observable colour change (Escherichia coli [1]; [20]): ++ | colour change (Escherichia coli [1]; EC 10^6 CFU and 10^4 CFU, after 48 h incubation): moderate colour change | colour change (Escherichia coli [1]; [21]): moderate or strong blue colour changes | Observable colour change (Escherichia coli [1]; [22]): +− | Observable colour change (Escherichia coli [1]; [23]): + | Observable colour change (Escherichia coli [1]; [24]): + | Observable colour change (Escherichia coli [1]; [25]): +− | Observable colour change (Escherichia coli [1]; [26]): ++ | Observable colour change (Escherichia coli [1]; [27]): ++ | Observable colour change (Escherichia coli [1]; [28]): +− | Observable colour change (Escherichia coli [1]; [29]): ++ | Observable colour change (Escherichia coli [1]; [30]): ++ | colour change (Escherichia coli [1]; EC 10^8 CFU, 10^6 CFU, and 104 CFU, substrate 900 mg/L, printed in the 48 h paragraph): strong blue colour changes | colour change (Escherichia coli [1]; EC 10^8 CFU, after 48 h incubation, substrate 900 or 1500 mg/L): strong blue colour changes | Observable colour change (Pseudomonas aeruginosa; [31]): blue colour changes; also recorded: Light blue | Observable colour change (Pseudomonas aeruginosa; substrate 600 mg/L): Light blue | Observable colour change (Pseudomonas aeruginosa; substrate 900 mg/L): Blue | Observable colour change (Pseudomonas aeruginosa; substrate 3000 mg/L): Dark blue | Observable colour change (Staphylococcus aureus; substrate 300 mg/L): None | Observable colour change (Staphylococcus aureus; substrate 600 mg/L): None | Observable colour change (Staphylococcus aureus; substrate 900 mg/L): None | Observable colour change (Staphylococcus aureus; substrate 3000 mg/L, hydrochloride): produced the colour change and Blue | Observable colour change (Escherichia coli [2]; [31]): blue colour changes; also recorded: Light blue | Observable colour change (Escherichia coli [2]; substrate 600 mg/L): Light blue | Observable colour change (Escherichia coli [2]; substrate 900 mg/L): Dark blue | Observable colour change (Escherichia coli [2]; substrate 3000 mg/L): Dark blue | colour change strength compared with the dimethyl analogue (Escherichia coli [2]; overnight cultures (EC, PSA, SA), overall comparison of Table 2): stronger colour changes than the dimethyl analogue (3a)

CC(C)C[C@H](N)C(=O)Nc1ccc(N(C)C)cc1.Cl [3a, (2S)-2-amino-N-[4-(dimethylamino)phenyl]-4-methyl-pentanamide hydrochloride]
Observable colour change (Escherichia coli [1]; [3]): − | Observable colour change (Escherichia coli [1]; [4]): − | Observable colour change (Escherichia coli [1]; [5]): − | Observable colour change (Escherichia coli [1]; [6]): − | Observable colour change (Escherichia coli [1]; [7]): − | Observable colour change (Escherichia coli [1]; [8]): + | Observable colour change (Escherichia coli [1]; [9]): − | Observable colour change (Escherichia coli [1]; [10]): +− | Observable colour change (Escherichia coli [1]; [11]): + | Observable colour change (Escherichia coli [1]; [12]): − | Observable colour change (Escherichia coli [1]; [13]): +− | Observable colour change (Escherichia coli [1]; [14]): + | Observable colour change (Escherichia coli [1]; [15]): − | Observable colour change (Escherichia coli [1]; [16]): +− | Observable colour change (Escherichia coli [1]; [17]): + | Observable colour change (Escherichia coli [1]; [18]): +− | Observable colour change (Escherichia coli [1]; [19]): + | Observable colour change (Escherichia coli [1]; [20]): ++ | colour change (Escherichia coli [1]; [21]): moderate or strong blue colour changes | Observable colour change (Escherichia coli [1]; [22]): +− | Observable colour change (Escherichia coli [1]; [23]): + | Observable colour change (Escherichia coli [1]; [24]): ++ | Observable colour change (Escherichia coli [1]; [25]): +− | Observable colour change (Escherichia coli [1]; [26]): + | Observable colour change (Escherichia coli [1]; [27]): ++ | Observable colour change (Escherichia coli [1]; [28]): +− | Observable colour change (Escherichia coli [1]; [29]): + | Observable colour change (Escherichia coli [1]; [30]): ++ | colour change (Escherichia coli [1]; EC, substrate 900 or 1500 mg/L, printed in the 48 h paragraph): moderate or strong colour change | Observable colour change (Pseudomonas aeruginosa; substrate 300 mg/L): None | Observable colour change (Pseudomonas aeruginosa; substrate 600 mg/L): Light blue | Observable colour change (Pseudomonas aeruginosa; substrate 900 mg/L): Blue | Observable colour change (Pseudomonas aeruginosa; substrate 3000 mg/L): Blue | Observable colour change (Staphylococcus aureus; substrate 300 mg/L): None | Observable colour change (Staphylococcus aureus; substrate 600 mg/L): Pale blue | Observable colour change (Staphylococcus aureus; substrate 900 mg/L): None | Observable colour change (Staphylococcus aureus; substrate 3000 mg/L): Light blue | Observable colour change (Escherichia coli [2]; substrate 300 mg/L): Light blue | Observable colour change (Escherichia coli [2]; substrate 600 mg/L): Light blue | Observable colour change (Escherichia coli [2]; substrate 900 mg/L): Blue | Observable colour change (Escherichia coli [2]; substrate 3000 mg/L): Dark blue
